Assay results: BindingDB's records for doi:10.1007/pl00005056 (Smithkline Beecham Pharmaceuticals, 1997)
Values joined by “and” are separate entries in the source; they are usually repeats but may differ in a detail not shown here. Identical values can stand only once.

Tests used:
[1] = biological target: T1, 5-hydroxytryptamine receptor 1F (Homo sapiens, UniProt P30939)
T1 sequence (P30939 whole entry): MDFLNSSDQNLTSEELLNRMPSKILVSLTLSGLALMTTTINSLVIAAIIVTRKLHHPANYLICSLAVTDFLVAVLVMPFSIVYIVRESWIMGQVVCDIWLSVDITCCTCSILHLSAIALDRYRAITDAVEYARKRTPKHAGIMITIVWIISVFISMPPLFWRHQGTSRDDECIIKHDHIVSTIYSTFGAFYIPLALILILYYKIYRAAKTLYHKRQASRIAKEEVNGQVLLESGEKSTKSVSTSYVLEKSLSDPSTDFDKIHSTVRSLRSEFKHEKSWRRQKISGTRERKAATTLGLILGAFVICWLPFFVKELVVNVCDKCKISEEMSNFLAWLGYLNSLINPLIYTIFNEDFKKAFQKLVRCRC

[2] = biological target: T2, 5-hydroxytryptamine receptor 1A (Homo sapiens, UniProt P08908)
T2 sequence (P08908 whole entry): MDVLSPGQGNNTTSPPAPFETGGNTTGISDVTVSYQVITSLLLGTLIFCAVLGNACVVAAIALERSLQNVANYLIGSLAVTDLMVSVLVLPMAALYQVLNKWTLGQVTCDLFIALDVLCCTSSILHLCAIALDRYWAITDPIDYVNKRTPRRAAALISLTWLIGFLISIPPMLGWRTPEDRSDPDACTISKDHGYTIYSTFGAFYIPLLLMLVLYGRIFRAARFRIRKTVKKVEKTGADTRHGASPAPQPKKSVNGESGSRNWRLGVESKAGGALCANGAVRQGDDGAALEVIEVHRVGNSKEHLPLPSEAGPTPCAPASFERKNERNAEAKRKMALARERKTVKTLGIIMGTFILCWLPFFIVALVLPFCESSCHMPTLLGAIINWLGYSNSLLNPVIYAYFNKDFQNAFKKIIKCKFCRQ

[3] = biological target: 5-hydroxytryptamine receptor 1E (Homo sapiens, UniProt P28566)
[4] = biological target: T3, 5-hydroxytryptamine receptor 2C (Homo sapiens, UniProt P28335)
T3 sequence (P28335 whole entry): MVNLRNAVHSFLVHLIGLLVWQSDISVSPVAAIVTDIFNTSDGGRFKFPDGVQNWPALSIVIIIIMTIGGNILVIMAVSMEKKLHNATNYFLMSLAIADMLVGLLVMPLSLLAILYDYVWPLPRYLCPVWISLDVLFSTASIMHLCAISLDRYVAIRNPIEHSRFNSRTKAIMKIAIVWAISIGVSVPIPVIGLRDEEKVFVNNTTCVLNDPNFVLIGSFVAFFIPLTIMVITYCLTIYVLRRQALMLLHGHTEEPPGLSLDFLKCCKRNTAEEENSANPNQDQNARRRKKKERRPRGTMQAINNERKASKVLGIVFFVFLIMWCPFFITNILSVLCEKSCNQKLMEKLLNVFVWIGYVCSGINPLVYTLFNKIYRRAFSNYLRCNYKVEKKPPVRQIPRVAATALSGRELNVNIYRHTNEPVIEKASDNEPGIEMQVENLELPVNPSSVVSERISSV

[5] = biological target: 5-hydroxytryptamine receptor 7 (Homo sapiens, UniProt P34969)
[6] = biological target: 5-hydroxytryptamine receptor 2B (Homo sapiens, UniProt P41595)
[7] = biological target: 5-hydroxytryptamine receptor 2A (Homo sapiens, UniProt P28223)
[8] = biological target: 5-hydroxytryptamine receptor 1B (Homo sapiens, UniProt P28222)
[9] = biological target: 5-hydroxytryptamine receptor 1D (Homo sapiens, UniProt P28221)
[10] = biological target: 5-hydroxytryptamine receptor 6 (Homo sapiens, UniProt P50406)
5-hydroxytryptamine receptor 6, sequence (P50406 whole entry): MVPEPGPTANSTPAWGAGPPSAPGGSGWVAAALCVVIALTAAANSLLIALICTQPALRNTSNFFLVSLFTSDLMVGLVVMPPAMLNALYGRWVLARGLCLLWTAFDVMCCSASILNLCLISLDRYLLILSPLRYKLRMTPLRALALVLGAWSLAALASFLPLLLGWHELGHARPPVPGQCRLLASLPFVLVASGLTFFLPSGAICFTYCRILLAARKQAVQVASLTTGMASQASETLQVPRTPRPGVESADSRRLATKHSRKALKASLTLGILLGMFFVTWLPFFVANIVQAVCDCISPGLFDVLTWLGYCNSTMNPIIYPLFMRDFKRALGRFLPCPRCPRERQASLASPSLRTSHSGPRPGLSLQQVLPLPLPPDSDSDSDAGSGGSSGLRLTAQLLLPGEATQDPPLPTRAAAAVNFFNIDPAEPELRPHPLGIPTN

5-hydroxytryptamine receptor 2A, sequence (P28223 whole entry): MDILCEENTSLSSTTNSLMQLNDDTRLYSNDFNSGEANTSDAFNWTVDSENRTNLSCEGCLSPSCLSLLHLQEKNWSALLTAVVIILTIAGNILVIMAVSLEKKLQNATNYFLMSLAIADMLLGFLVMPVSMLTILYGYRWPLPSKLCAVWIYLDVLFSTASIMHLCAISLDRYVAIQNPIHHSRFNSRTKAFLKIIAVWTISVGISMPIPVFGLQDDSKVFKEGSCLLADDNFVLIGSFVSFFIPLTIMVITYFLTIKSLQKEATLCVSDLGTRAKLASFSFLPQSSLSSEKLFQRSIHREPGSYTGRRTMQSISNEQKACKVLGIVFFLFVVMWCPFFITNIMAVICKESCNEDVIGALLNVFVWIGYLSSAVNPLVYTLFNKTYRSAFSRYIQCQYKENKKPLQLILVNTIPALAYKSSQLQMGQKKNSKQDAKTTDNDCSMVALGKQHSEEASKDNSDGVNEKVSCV
5-hydroxytryptamine receptor 7, sequence (P34969 whole entry): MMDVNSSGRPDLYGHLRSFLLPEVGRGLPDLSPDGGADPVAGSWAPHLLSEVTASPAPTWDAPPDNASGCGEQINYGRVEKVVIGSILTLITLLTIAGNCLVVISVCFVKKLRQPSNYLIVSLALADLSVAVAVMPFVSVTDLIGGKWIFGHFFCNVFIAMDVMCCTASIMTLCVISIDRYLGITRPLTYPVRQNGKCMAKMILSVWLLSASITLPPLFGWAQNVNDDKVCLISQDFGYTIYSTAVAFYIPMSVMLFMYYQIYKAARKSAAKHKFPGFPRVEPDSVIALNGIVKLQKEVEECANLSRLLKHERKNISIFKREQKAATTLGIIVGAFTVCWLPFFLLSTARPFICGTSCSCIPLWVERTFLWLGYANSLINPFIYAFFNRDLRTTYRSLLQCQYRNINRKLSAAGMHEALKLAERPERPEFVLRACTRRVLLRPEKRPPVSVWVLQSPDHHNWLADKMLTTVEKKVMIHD
5-hydroxytryptamine receptor 1B, sequence (P28222 whole entry): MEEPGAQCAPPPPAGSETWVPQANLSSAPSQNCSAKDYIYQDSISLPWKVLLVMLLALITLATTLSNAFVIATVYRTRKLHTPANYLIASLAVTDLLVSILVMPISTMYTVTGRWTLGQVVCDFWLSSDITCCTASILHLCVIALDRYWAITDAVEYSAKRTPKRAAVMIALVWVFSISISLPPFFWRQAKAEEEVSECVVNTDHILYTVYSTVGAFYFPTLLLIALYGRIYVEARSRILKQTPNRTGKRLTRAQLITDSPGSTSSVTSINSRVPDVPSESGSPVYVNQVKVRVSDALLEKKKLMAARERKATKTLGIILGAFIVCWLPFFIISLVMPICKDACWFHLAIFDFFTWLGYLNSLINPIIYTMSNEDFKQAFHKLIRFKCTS
5-hydroxytryptamine receptor 1E, sequence (P28566 whole entry): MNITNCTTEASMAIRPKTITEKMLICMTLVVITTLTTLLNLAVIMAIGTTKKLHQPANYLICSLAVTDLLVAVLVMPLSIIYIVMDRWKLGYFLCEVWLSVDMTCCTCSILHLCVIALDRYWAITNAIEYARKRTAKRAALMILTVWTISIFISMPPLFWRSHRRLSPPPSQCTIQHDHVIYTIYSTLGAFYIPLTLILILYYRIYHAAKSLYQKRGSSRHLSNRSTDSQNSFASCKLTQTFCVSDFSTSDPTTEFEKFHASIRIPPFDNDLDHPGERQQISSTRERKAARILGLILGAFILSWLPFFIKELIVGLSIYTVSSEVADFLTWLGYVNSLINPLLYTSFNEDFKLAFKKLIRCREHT
5-hydroxytryptamine receptor 2B, sequence (P41595 whole entry): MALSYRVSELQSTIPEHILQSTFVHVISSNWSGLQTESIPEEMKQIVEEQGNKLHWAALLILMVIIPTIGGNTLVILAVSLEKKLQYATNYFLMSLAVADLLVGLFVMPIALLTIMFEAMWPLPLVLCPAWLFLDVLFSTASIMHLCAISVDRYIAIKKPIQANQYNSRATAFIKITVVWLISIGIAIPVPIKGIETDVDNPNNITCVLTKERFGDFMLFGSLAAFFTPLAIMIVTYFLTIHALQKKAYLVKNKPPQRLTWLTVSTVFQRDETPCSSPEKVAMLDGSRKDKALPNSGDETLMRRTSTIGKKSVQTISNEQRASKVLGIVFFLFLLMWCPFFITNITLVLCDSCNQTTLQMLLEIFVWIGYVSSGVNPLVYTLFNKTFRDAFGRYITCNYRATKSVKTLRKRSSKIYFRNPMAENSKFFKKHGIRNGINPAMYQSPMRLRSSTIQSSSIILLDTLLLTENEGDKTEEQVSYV
5-hydroxytryptamine receptor 1D, sequence (P28221 whole entry): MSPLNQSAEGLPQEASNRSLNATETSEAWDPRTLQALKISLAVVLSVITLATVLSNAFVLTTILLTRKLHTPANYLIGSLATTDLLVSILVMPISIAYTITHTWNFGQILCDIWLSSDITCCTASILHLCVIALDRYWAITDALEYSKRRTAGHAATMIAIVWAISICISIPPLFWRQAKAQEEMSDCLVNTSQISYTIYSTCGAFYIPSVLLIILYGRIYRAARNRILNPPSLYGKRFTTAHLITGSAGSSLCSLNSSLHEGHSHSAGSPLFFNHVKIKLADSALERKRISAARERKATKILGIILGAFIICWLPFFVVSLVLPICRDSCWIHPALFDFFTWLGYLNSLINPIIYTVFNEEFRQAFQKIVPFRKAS

Ki [1] [nM] | Ki [3] [nM] | Ki [4] [nM] | Ki [5] [nM] | Ki [6] [nM] | Ki [7] [nM] | Ki [8] | Ki [10] [nM] | Structure (SMILES) | Ki [2] [nM] | Ki [9]
398 | 3980 | 100 | 631 | 631 | 15.8 | 1 nM and 7.94 nM | 1580 | COc1ccc(NC(=O)c2ccc(-c3ccc(-c4noc(C)n4)cc3C)cc2)cc1N1CCN(C)CC1 [SMR001230745] | 63.1 | 
1000 | 6310 | 631 | 501 | 39.8 | 251 | 794 nM and 1260 nM | 1260 | OC(CN1CCN(c2cccc(Cl)c2)CC1)C(c1ccccc1)c1ccccc1 (stereo not drawn) |  | 12.6 nM and 7.94 nM

Structure (SMILES) | Ki [1] [nM] | Ki [3] [nM] | Ki [4] [nM] | Ki [5] [nM] | Ki [6] [nM] | Ki [7] [nM] | Ki [8] | Ki [10] [nM] | Ki [2] [nM] | Ki [9]
COc1ccc(NC(=O)c2ccc(-c3ccc(-c4noc(C)n4)cc3C)cc2)cc1OCCN(C)C [CAS_3292447] | 1000 | 1000 | 158 | > 10000 | 1580 | 50.1 | 1 nM and 7.94 nM | 3160 | 501 | 25.1 nM and 12.6 nM
